Source: patent US5635608A, “α-carboxy caged compounds” (Molecular Probes, Inc., priority 1994, dated 1997)

System: whole neuron
Assay: Release of a caged neurotransmitter in situ: whole-cell current of a neuron before and on photolysis
Format: cell-based
Source text: FIG. 2: The photolysis of a caged probe in situ, as described in Example 15.
A whole neuron is bathed in a solution of γ-(α-carboxy o-nitrobenzyl)-caged glutamic acid (3), as described in Example 1. The whole-cell current is then monitored as the neuron is photolyrically illuminated at 343 nm. […] This indicates both that the uncaging of a CNB-caged probe is extremely rapid, but also verifies that the caged neurotransmitter is inert in situ until uncaged.

With N[C@@H](CCC(=O)OC(C(=O)O)c1ccccc1[N+](=O)[O-])C(=O)O (stereo partly drawn) [Compound 3, L-Glutamic Acid, γ-(α-carboxy-o-nitrobenzyl) ester] the “whole-cell current on photolytic illumination” value (illumination at 343 nm, begun at time=0 ms, FIG. 2) was “increases rapidly” and the “activity of the caged neurotransmitter in situ before uncaging (whole-cell current)” value (whole neuron bathed in solution of caged glutamic acid, before illumination) was “inert”.
